Results from patent US7622472B2, “Combination of Src kinase inhibitors and chemotherapeutic agents for the treatment of proliferative diseases” (priority 2003, dated 2009).

Experiments:
[1] = tested on: Src family kinases (SFKs, including: Fyn, Yes, Yrk, Blk, Fgr, Hck, Lyn, and Frk subfamily members Frk/Rak and Iyk/Bsk); assay: Inhibition of Src family kinases (statement, no method); assay type: biochemical; settings: competes with ATP for the ATP-binding site in the kinase domain
[2] = tested on: PC3 human prostate carcinoma xenografts; assay: In vivo antitumor testing, PC3 human prostate carcinoma xenografts in nude mice; settings: single agent compound 1, 10 mpk, orally, twice-a-day, 5-day-on, 2-day-off, 14 days
Text: Tumors were propagated as subcutaneous transplants using tumor fragments obtained from donor mice.
For treatment of early-stage tumors, the animals were again pooled before distribution to the various treatment and control groups. For treatment of animals with advanced-stage disease, tumors were allowed to grow to the pre-determined size window (tumors outside the range were excluded) and animals were evenly distributed to various treatment and control groups. Treatment of each animal was based on individual body weight. Treated animals were checked daily for treatment related toxicity/mortality. Each group of animals was weighed before the initiation of treatment (Wt1) and then again following the last treatment dose (Wt2). The difference in body weight (Wt2−Wt1) provides a measure of treatment-related toxicity. Tumor response was determined by measurement of tumors with a caliper twice a week, until the tumors reach a predetermined “target” size of 1 gm. Tumor weights (mg) were estimated from the formula: Tumor weight=(length×width2)÷2 Antitumor activity was evaluated at the maximum tolerated dose (MTD) which is defined as the dose level immediately below which excessive toxicity (i.e. more than one death) occurred. […] When death occurs, the day of death was recorded.

Cc1nc(Nc2ncc(C(=O)Nc3c(C)cccc3Cl)s2)cc(N2CCN(CCO)CC2)n1 [Compound 1, ′N-(2-Chloro-6-methylphenyl)-2-[[6-[4-(2-hydroxyethyl)-1-piperazinyl]-2-methyl-4-pyrimidinyl]amino]-5-thiazolecarboxamide]
inhibition of Src family kinases [1]: potently inhibits | growth delay (T-C) [2]: 4.5 days | tumor growth inhibition (% T/C) [2]: 58%
